Our source for the minimal effective dose and uterus/breast tissue-selectivity values is patent US7163946B2 (Ligand Pharmaceuticals Incorporated, priority 2002, dated 2007).

One assay deals with immature rabbits. In words: McPhail (Clauberg) rabbit assay of progestational activity. Type of assay: in vivo. The conditions noted are these: Oryctolagus cuniculus; estradiol-primed immature rabbits; glandular changes of the uterus; read-out: potency (MAD in mg/kg), minimum active dose. How it is done: The superiority of the 7,9-difluoro analogue compounds of the present invention was further characterized utilizing the McPhail rabbit model according to the following illustrative Examples. The Clauberg or McPhail assay is a classic assay utilizing rabbits to measure progestational activity. […] In this assay, immature rabbits are treated initially with estradiol, which induces growth in the uterus. This is followed by a progestin, which causes a large change in the glandular content of the uterus. It is this change in the glandular component which is a measure of the progestational activity of a progestin. The measurement of these glandular changes is carried out histologically using stained sections of the uterus. The in vivo comparison between the new 7,9-difluoro compounds and analogues with substitution patterns different from 7,9-difluoro (U.S. Pat. Nos. 5,693,646 and 5,696,127) is tabulated in Tables 7 and 8. The in vivo potency of the progestins is presented as the minimum active dose (MAD).

For assay [1], the system named is ovariectomized female rats. In words: Multi-endpoint adult rat model, uterus/breast tissue-selectivity. Type of assay: in vivo. The note with it: ratio of relative efficacy to MPA in uterus verse in breast tissue at the same highest dose tested; estrone-treated ovariectomized rats, three days.
Description: In this assay, advantage is taken of the fact that in the uterus, estrogens induce a proliferation and increase in the epithelial cell height and uterine wet weight, which can be antagonized by progestins. In the breast, estrogens induce a proliferation of the ductal network while progestins stimulate the growth of the lobular-alveolar end buds, which grow from the distal end of the ducts. […] Proliferating cells or inhibition of proliferating cells were quantitated either by measurements of cell height in sectioned and stained tissue samples or, in the case of the breast, immuno-histochemically labeled Brdu incorporated nuclei.

With `CC1=CC(C)(C)Nc2ccc3c(c21)/C(=C/c1cccc(F)c1)Oc1c(F)cc(F)cc1-3` [Compound 15, 7,9-difluoro-5(Z)-(3-fluorobenzylidene)-1,2-dihydro-2,2,4-trimethyl-5H-chromeno[3,4-f]quinoline], the minimal effective dose in the assay with immature rabbits is 0.18 mg/kg. `CC1=CC(C)(C)Nc2ccc3c(c21)/C(=C/c1cc(F)ccc1F)Oc1c(F)cc(F)cc1-3` [Compound 17, 7,9-difluoro-5(Z)-(2,5-difluorobenzylidene)-1,2-dihydro-2,2,4-trimethyl-5H-chromeno[3,4-f]quinoline]: in assay [1], the uterus/breast tissue-selectivity was determined as 2.7. In addition, the minimal effective dose with immature rabbits worked out at 0.25 mg/kg. Take `CC1=CC(C)(C)Nc2ccc3c(c21)C(c1cccc(C)c1)Oc1c(F)cc(F)cc1-3` (racemic) [Compound 34, (±)-7,9-difluoro-5-(3-methylphenyl)-1,2-dihydro-2,2,4-trimethyl-5H-chromeno[3,4-f]quinoline]: in the assay on immature rabbits, the minimal effective dose was found to be 1 mg/kg. With `COc1ccc(F)cc1/C=C1\Oc2c(F)cc(F)cc2-c2ccc3c(c21)C(C)=CC(C)(C)N3` [Compound 26, 7,9-difluoro-5(Z)-(2-methoxy-5-fluorobenzylidene)-1,2-dihydro-2,2,4-trimethyl-5H-chromeno[3,4-f]quinoline], the minimal effective dose with immature rabbits was determined as 2 mg/kg. On to `CC1=CC(C)(C)Nc2ccc3c(c21)C(c1cccc(Cl)c1)Oc1c(F)cc(F)cc1-3` (racemic) [Compound 41, (±)-7,9-difluoro-5-(3-chlorophenyl)-1,2-dihydro-2,2,4-trimethyl-5H-chromeno[3,4-f]quinoline], for which the minimal effective dose in the assay on immature rabbits was 0.75 mg/kg. Still for that read-out and setting: with `CC1=CC(C)(C)Nc2ccc3c(c21)/C(=C/c1ccncc1C)Oc1c(F)cc(F)cc1-3` [Compound 20, 7,9-difluoro-5(Z)-(3-methyl-4-picolylidene)-1,2-dihydro-2,2,4-trimethyl-5H-chromeno[3,4-f]quinoline] the figure was 0.25 mg/kg; with `COc1ccccc1/C=C1\Oc2c(F)cc(F)cc2-c2ccc3c(c21)C(C)=CC(C)(C)N3` [Compound 18, 7,9-difluoro-5(Z)-(2-methoxybenzylidene)-1,2-dihydro-2,2,4-trimethyl-5H-chromeno[3,4-f]quinoline], 2 mg/kg. On to `CC1=CC(C)(C)Nc2ccc3c(c21)/C(=C/c1cc(F)ccc1C)Oc1c(F)cc(F)cc1-3` [Compound 19, 7,9-difluoro-5(Z)-(2-methyl-5-fluorobenzylidene)-1,2-dihydro-2,2,4-trimethyl-5H-chromeno[3,4-f]quinoline], for which the uterus/breast tissue-selectivity in assay [1] came out at 3.5. Moreover, the minimal effective dose in the assay on immature rabbits came to 0.1 mg/kg.

In the case of `CC1=CC(C)(C)Nc2ccc3c(c21)/C(=C/c1cccs1)Oc1c(F)cc(F)cc1-3` [Compound 31, 7,9-difluoro-5(Z)-(2-thienylmethylidene)-1,2-dihydro-2,2,4-trimethyl-5H-chromeno[3,4-f]quinoline], the uterus/breast tissue-selectivity in assay [1] is 3.5.
